Test results reported in patent EP2042492A1, “Novel Iminooxazole and Iminothiazole Compounds” (Bayer CropScience AG, priority 2007, dated 2009).

Tests used:
[1] = LogP via HPLC according to EEC directive 79/831 Annex V.A8 (gradient method, acetonitrile / 0,1 % aqueous formic acid); assay type: physicochemical; details: read-out: lgP (HCOOH)
Method: Step 2: A stirred mixture of 58 mg (0,24 mmol) of 1-[(1S)-1-(4-fluorophenyl)ethyl]-3-(2-hydroxyethyl)thiourea (preparation step 1) and 27 mg (0,29 mmol) of 1-chloro-propan-2-one in ethanol was refluxed for 18 hours. The solvent was evaporated under reduced pressure and the residue was heated to 70 °C with 25 % aqueous NH4OH solution. This aqueous solution was cooled to ambient temperature and extracted twice with dichloromethane. The organic layer was separated, dried with sodium sulfate and filtered off. The solvent was evaporated under reduced pressure. The residue was purified by chromatography (silica gel; cyclohexane/ethyl acetate = vol. 2:1) to afford 42 mg of 2-[(2E)-2-{[(1S)-1-(4-fluorophenyl)ethyl]imino}-4-methyl-1,3-thiazol-3(2H)-yl]ethanol. Yield: 42 mg (62,3 % of theory). logP (HCOOH) = 0,89 LogP values according EEC directive 79/831 Annex V.A8 via HPLC (gradient method, acetonitrile / 0,1 % aqueous formic acid).

Myzus persicae = Myzus persicae - test (MYZUPE spray application); assay type: in vivo; details: application rate of 500g/ha, spray on Chinese cabbage leaf-disks infected with all instars of green peach aphid, 100% = all aphids killed
Method: Myzus persicae - test; (MYZUPE spray application)
Chinese cabbage (Brassica pekinesis) leaf-disks infected with all instars of the green peach aphid (Myzus persicae), are sprayed with a preparation of the active ingredient at the desired concentration.
After the specified period of time, mortality in % is determined. 100% means that all aphids have been killed; 0% means that none of the aphids have been killed.

Phaedon cochleariae = Phaedon cochleariae - test (PHAECO spray application); assay type: in vivo; details: application rate of 500g/ha, sprayed Chinese cabbage leaf-disks infested with mustard beetle larvae, 100 % = all beetle larvae killed
Method: Phaedon cochleariae - test; (PHAECO spray application)
(§1) To produce a suitable preparation of active compound, 1 part by weight of active compound is mixed with the stated amount of solvent and emulsifier, and the concentrate is diluted with emulsifier-containing water to the desired concentration.
Chinese cabbage (Brassica pekinesis) leaf-disks are sprayed with a preparation of the active ingredient of the desired concentration. Once dry, the leaf disks are infested with mustard beetle larvae (Phaedon cochleariae).
After the specified period of time, mortality in % is determined. 100 % means that all beetle larvae have been killed and 0 % means that none of the beetle larvae have been killed.

Tetranychus urticae = Tetranychus urticae - test; OP-resistant (TETRUR spray application); assay type: in vivo; details: application rate of 500g/ha, spray on French beans infested with all stages of two spotted spidermite, 100% = all spider mites killed
Method: Tetranychus urticae - test; OP-resistant (TETRUR spray application)
as §1
French beans (Phaseolus vulgaris) which are heavily infested with all stages of the two spotted spidermite (Tetranychus urticae), are sprayed with a preparation of the active ingredient at the desired concentration.
After the specified period of time, mortality in % is determined. 100% means that all spider mites have been killed and 0% means that none of the spider mites have been killed.

Row | SMILES | chromatographic logP [1] | mortality at 500 g/ha (Myzus persicae) | mortality at 500 g/ha (Phaedon cochleariae) | mortality at 500 g/ha (Tetranychus urticae)
1 | Cc1csc(=N[C@@H](C)c2ccccc2)n1CCO [Example 2-17] | 0.85 | ≥ 80% |  | 
2 | CCc1csc(=N[C@@H](C)c2ccccc2)n1CCO [Example 2-18] | 0.96 | ≥ 80% |  | 
3 | CC(C)c1csc(=N[C@@H](C)c2ccccc2)n1CCO [Example 2-19] | 1.07 | ≥ 80% |  | 
4 | Cc1sc(=N[C@@H](C)c2ccccc2)n(CCO)c1C [Example 2-21] | 1.13 | ≥ 80% |  | 
5 | C[C@H](N=c1scc(C2CC2)n1CCO)c1ccccc1 [Example 2-22] | 1.01 | ≥ 80% |  | 
6 | C[C@H](N=c1scc(C2CCCC2)n1CCO)c1ccccc1 [Example 2-23] | 1.26 | ≥ 80% |  | 
7 | C[C@H](N=c1scc(-c2ccccc2)n1CCO)c1ccccc1 [Example 2-25] | 1.19 | ≥ 80% |  | 
8 | C[C@H](N=c1scc(-c2cccnc2)n1CCO)c1ccccc1 [Example 2-27] | 0.85 | ≥ 80% |  | 
9 | C[C@H](N=c1scc(C2(Cl)CC2)n1CCO)c1ccccc1 [Example 2-29] | 1.12 | ≥ 80% |  | 
10 | Cc1cs/c(=N/[C@@H](C)c2ccc(F)cc2)n1CCO [Example 2-152, 2-[(2E)-2-{[(1S)-1-(4-fluorophenyl)ethyl]imino}-4-methyl-1,3-thiazol-3(2H)-yl]ethanol] | 0.89 | ≥ 80% |  | 
11 | CCc1csc(=N[C@@H](C)c2ccc(F)cc2)n1CCO [Example 2-153] | 1 | ≥ 80% | ≥ 80% | 
12 | CC(C)c1csc(=N[C@@H](C)c2ccc(F)cc2)n1CCO [Example 2-154] | 1.12 | ≥ 80% |  | 
13 | C[C@H](N=c1scc(C2CC2)n1CCO)c1ccc(F)cc1 [Example 2-157] | 1.03 | ≥ 80% |  | 
14 | C[C@H](N=c1scc(C2CCCC2)n1CCO)c1ccc(F)cc1 [Example 2-158] | 1.31 | ≥ 80% |  | 
15 | C[C@H](N=c1scc(-c2ccccc2)n1CCO)c1ccc(F)cc1 [Example 2-160] | 1.26 | ≥ 80% |  | 
16 | C[C@H](N=c1scc(-c2cccnc2)n1CCO)c1ccc(F)cc1 [Example 2-162] | 0.9 | ≥ 80% |  | 
17 | C[C@H](N=c1scc(C2(Cl)CC2)n1CCO)c1ccc(F)cc1 [Example 2-164] | 1.14 | ≥ 80% |  | 
18 | COc1ccc([C@H](C)N=c2scc(C)n2CCO)cc1 [Example 2-272] | 0.89 |  |  | 
19 | CCc1csc(=N[C@@H](C)c2ccc(OC)cc2)n1CCO [Example 2-273] | 1 |  |  | 
20 | Cc1csc(=N[C@@H](C)c2ccc(Cl)cc2)n1CCO [Example 2-287] | 1.03 | ≥ 80% |  | ≥ 80%
21 | CCc1csc(=N[C@@H](C)c2ccc(Cl)cc2)n1CCO [Example 2-288] | 1.14 | ≥ 80% |  | ≥ 80%

Second part, led by results:

Row | chromatographic logP [1] | SMILES | mortality at 500 g/ha (Myzus persicae) | mortality at 500 g/ha (Phaedon cochleariae) | mortality at 500 g/ha (Tetranychus urticae)
22 | 1.09 | COc1ccc([C@H](C)N=c2scc(C(C)C)n2CCO)cc1 [Example 2-274] |  |  | 
23 | 1.05 | COc1ccc([C@H](C)N=c2scc(C3CC3)n2CCO)cc1 [Example 2-277] |  |  | 
24 | 1.33 | COc1ccc([C@H](C)N=c2scc(C3CCCC3)n2CCO)cc1 [Example 2-278] |  |  | 
25 | 1.26 | COc1ccc([C@H](C)N=c2scc(-c3ccccc3)n2CCO)cc1 [Example 2-280] |  |  | 
26 | 0.9 | COc1ccc([C@H](C)N=c2scc(-c3cccnc3)n2CCO)cc1 [Example 2-282] |  |  | 
27 | 1.14 | COc1ccc([C@H](C)N=c2scc(C3(Cl)CC3)n2CCO)cc1 [Example 2-284] |  |  | 
28 | 1.28 | CC(C)c1csc(=N[C@@H](C)c2ccc(Cl)cc2)n1CCO [Example 2-289] | ≥ 80% |  | 
29 | 1.42 | C[C@H](N=c1scc(C2CCCC2)n1CCO)c1ccc(Cl)cc1 [Example 2-293] | ≥ 80% |  | 
30 | 1.38 | C[C@H](N=c1scc(-c2ccccc2)n1CCO)c1ccc(Cl)cc1 [Example 2-295] | ≥ 80% |  | 
31 | 1.03 | C[C@H](N=c1scc(-c2cccnc2)n1CCO)c1ccc(Cl)cc1 [Example 2-297] | ≥ 80% |  | 
32 | 1.33 | C[C@H](N=c1scc(C2(Cl)CC2)n1CCO)c1ccc(Cl)cc1 [Example 2-299] | ≥ 80% |  | 
33 | 0.98 | CC[C@H](N=c1scc(C)n1CCO)c1ccccc1 [Example 2-362] | ≥ 80% |  | 
34 | 1.09 | CCc1csc(=N[C@@H](CC)c2ccccc2)n1CCO [Example 2-363] | ≥ 80% |  | 
35 | 1.19 | CC[C@H](N=c1scc(C(C)C)n1CCO)c1ccccc1 [Example 2-364] | ≥ 80% |  | 
36 | 1.14 | CC[C@H](N=c1scc(C2CC2)n1CCO)c1ccccc1 [Example 2-367] | ≥ 80% |  | 
37 | 1.4 | CC[C@H](N=c1scc(C2CCCC2)n1CCO)c1ccccc1 [Example 2-368] | ≥ 80% |  | 
38 | 1.33 | CC[C@H](N=c1scc(-c2ccccc2)n1CCO)c1ccccc1 [Example 2-370] | ≥ 80% |  | 
39 | 1 | CC[C@H](N=c1scc(-c2cccnc2)n1CCO)c1ccccc1 [Example 2-372] | ≥ 80% |  | 
40 | 1.19 | CC[C@H](N=c1scc(C2(Cl)CC2)n1CCO)c1ccccc1 [Example 2-374] | ≥ 80% |  | 
